Reference: publication PMC6222545, “Evaluating Marine Cyanobacteria as a Source for CNS Receptor Ligands” (Molecules : A Journal of Synthetic Chemistry and Natural …, 2018)

Legend:
[1] = test system: 5-HTRs or any other receptor; experiment: PDSP primary radioligand binding screen, CNS receptor panel; parameters: dose or concentration left out as unconfirmed; conditions: data not shown
Protocol: (§1) Prior to screening, cyanobacterial samples are extracted exhaustively in a solution of dichloromethane and methanol, then the extract is subjected to column chromatography using the solvent step gradient illustrated in Figure 1 to create nine fractions. The polarities of the solvents in this step gradient increase linearly with each fraction. A sample of each fraction and the crude is prepared and sent to the NIMH Psychoactive Drug Screening Program (PDSP) for screening against a panel of ~50 receptor including 5-HTRs, DARs, MATs, σRs, and other CNS receptors.
(§2) From the extracts of 37 cyanobacterial field collections from Panama and Curacao, 19 crude extracts and 301 fractions were sent to PDSP for CNS screening. Due to sample size requirements not all fractions created are sent for screening, resulting in a lower number of total fractions screened compared to the theoretical amount of 370 fractions and crudes. […] Data analysis of results from these screens is presented herein.
IC50 determinations/receptor binding profiles were generously provided by the National Institute of Mental Health’s Psychoactive Drug Screening Program, Contract # HHSN-271-2018-00023-C (NIMH PDSP). The NIMH PDSP is Directed by Bryan L. Roth MD, PhD at the University of North Carolina at Chapel Hill and Project Officer Jamie Driscoll at NIMH, Bethesda MD, USA. Detailed information regarding the assay protocol can be found at http://pdspdb.unc.edu/pdspWeb/.

5-HT2C = biological target: T1, 5-HT2C (Homo sapiens, UniProt P28335); experiment: PDSP radioligand competitive binding, 5-HT2C
T1 sequence (P28335 33-458): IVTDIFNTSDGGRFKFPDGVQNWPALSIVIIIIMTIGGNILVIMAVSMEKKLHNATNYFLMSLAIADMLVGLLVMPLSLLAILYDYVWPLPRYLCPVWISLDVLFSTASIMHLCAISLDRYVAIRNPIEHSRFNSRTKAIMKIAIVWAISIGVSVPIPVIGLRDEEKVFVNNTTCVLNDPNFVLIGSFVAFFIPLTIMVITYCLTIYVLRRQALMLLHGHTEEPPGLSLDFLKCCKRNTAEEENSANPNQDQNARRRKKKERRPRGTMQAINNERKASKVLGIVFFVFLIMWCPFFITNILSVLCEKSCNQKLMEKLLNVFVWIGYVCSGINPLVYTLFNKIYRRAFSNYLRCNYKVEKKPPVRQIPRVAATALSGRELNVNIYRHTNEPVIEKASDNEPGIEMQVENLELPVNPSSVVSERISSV
Protocol: as §1, §2
(§3) A cyanobacterial biomass collected at Isla Mina, Panama was extracted exhaustively with CH2Cl2-MeOH (2:1) to afford 3.3 g of crude extract given the identification code DUQ0008. This extract was fractionated to yield nine fractions (A–I). The crude extract, along with the nine fractions were submitted to PDSP for screening. […]

σ2R = biological target: T2, σ2R (Rattus norvegicus, UniProt Q5U3Y7); experiment: PDSP radioligand competitive binding, σ2R
T2 sequence (Q5U3Y7 1-176): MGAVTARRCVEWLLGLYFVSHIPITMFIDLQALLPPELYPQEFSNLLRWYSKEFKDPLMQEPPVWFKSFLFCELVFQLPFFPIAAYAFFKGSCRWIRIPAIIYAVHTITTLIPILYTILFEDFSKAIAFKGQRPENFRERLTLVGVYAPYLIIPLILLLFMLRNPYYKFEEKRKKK
Protocol: as §1, §2, §3

[2] = pure compound resubmitted to PDSP

| Compound | inhibition of radioligand binding at 5-HTRs or any other receptor [1] | inhibition of binding at 5-HT2C (5-HT2C; primary binding, pure compound) | Ki (5-HT2C; [2]) | affinity for the σ2R (σ2R; in words) | Ki (σ2R; [2]) |
| --- | --- | --- | --- | --- | --- |
| C=C(CCCCCCCCCCCCC)CCCC(=O)O/C=C/COC(C)=O [compound 4, propenediester] | < 50% |  |  |  |  |
| CCCCCCCCC/C(C)=C/C(C/C=C/CCC(=O)OCC)OC (stereo not shown) [compound 2] | < 50% |  |  |  |  |
| CCCCCCC[C@H]1C[C@@H]1CCC(=O)OCC [compound 3] | < 50% |  |  |  |  |
| C#CCCC[C@H]1OC(=O)[C@H](C(C)C)N(C)C(=O)[C@@H]2CCCN2C(=O)[C@H]([C@@H](C)CC)OC(=O)[C@H](C(C)C)N(C)C(=O)[C@H](C(C)C)NC(=O)[C@H]1C [compound 1, veraguamide C] |  | greater than 50% | > 10000 nM | moderate and selective affinity | 316 nM |
